These results are taken from US12331121B2, “Efflux pump-cancer antigen multi-specific antibodies and compositions, reagents, kits and methods related thereto” (William Robert Arathoon Living Trust Dated August 29, 2016, priority 2019, dated 2025).

One assay deals with MES-SA/Dx5 cells. Description: MES-SA/Dx5 subcutaneous tumors in nude mice. The assay is classed as in vivo. As to the method: Cells: MES-SA/Dx5 cell line (Sigma, catalogue no 95051031) is a uterine sarcoma, derived from parent MES-SA cell line (Sigma, catalogue no 95051030), was used in this study.
Mice: 5-6-week-old female nude mice (Charles River) were used in this study.
All animal maintenance, handling, surveillance, and animal procedures were performed in accordance with and approval from the APLAC protocol.
MES-SA/Dx5 subcutaneous tumors: Once tumors reached 100-150 mm^3, mice were randomized into six groups of five mice each—(i) Control isotype IgG1 3 mg/kg, (ii) Control isotype IgG1 3 mg/kg and 20 mg/kg of paclitaxel, (iii) KNJYBisP1.1 3 mg/kg, (iv) KNJYBisP1.1 3 mg/kg and 20 mg/kg of paclitaxel, (v) KNJYBisP1.1 LALAPG 3 mg/kg and (vi) KNJYBisP1.1 LALAPG 3 mg/kg and 20 mg/kg of paclitaxel. Antibody and paclitaxel were dosed intraperitoneally twice a week for two consecutive weeks. […]

Assay [1] relates to multidrug resistant N6ADR cells. Description: N6ADR tumor volume in mice (Example 2, FIG. 9). The assay is classed as in vivo. The note with it: antibody on day 0, 4, 7, 11; no chemotherapeutic agent. Here is the method: N6ADR cells were injected into a cohort of 6 mice per test group prior to administration of the indicated antibodies. The antibodies were administered once palpable tumors reached a size of about 100-150 mm^3 (about 7 days after injection of tumor cells). Antibodies were administered on day 0, day 4, day 7, and day 11. Tumor volumes were measured and are plotted. Panel A: 15D3/MRK16 monoclonal anti-MDR1 antibody. Panel B: KT14/MRK16 monoclonal anti-CD47 antibody. Panel C: Co-administration of 15D3/MRK16 monoclonal anti-MDR1 antibody and KT14/MRK16 monoclonal anti-CD47 antibody. Panel D: KbisP1.1 antibody.
The indicated antibodies were administered with or without the chemotherapeutic agent paclitaxel. Antibody was dosed about 1-4 hrs prior to Paclitaxel.

As for “KBisP1.1: bispecific anti-MDR1/anti-CD47 antibody: 15D3 heavy chain, 5F9 (KT14) heavy chain, common MRK16 light chain, human IgG1”, in the assay on MES-SA/Dx5 cells (3 mg/kg with paclitaxel 20 mg/kg, FIG. 29), the “chemosensitizing effect compared with monospecific antibodies” value is given as “stronger than either the 15D3 hybridoma or KT14 monoclonal antibodies”. Further, in the assay with MES-SA/Dx5 cells (antibody 3 mg/kg, paclitaxel 20 mg/kg), the “chemosensitization of MES-SA/Dx5 tumors to paclitaxel” value is listed as “chemosensitizes”. Further, in assay [1], the “effect on tumor volume without paclitaxel” value is listed as “more efficacious than the co-administration”.
